Test system: 991263-137-R1-J2-PDC complex spheroid viability
Test: Anticancer human tumor 991263-137-R1-J2-PDC patient-derived colon adenocarcinoma cell line growth inhibition [POLQ]
Conditions: for IC50: curve of first compound; for viability, T/C: stronger effect = lower value
Summary of the method: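 Growth inhibition in 3D: complex spheroids (tumor PDC, HUVEC, MSC) treated with POLQ inhibitor combinations; where Cmax unknown, highest tested concentration 10 microM, except SN-38 at 1 microM.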

[1] = second compound 0.0316 µM, first compound 0.0316 µM
[2] = second compound 0.0316 µM, first compound 0.1 µM
[3] = second compound 0.0316 µM, first compound 0.316 µM
[4] = second compound 0.0316 µM, first compound 1 µM
[5] = second compound 0.0316 µM, first compound 3.16 µM
[6] = second compound 0.0316 µM, first compound 10 µM
[7] = second compound 0.1 µM, first compound 0.0316 µM
[8] = second compound 0.1 µM, first compound 0.1 µM
[9] = second compound 0.1 µM, first compound 0.316 µM
[10] = second compound 0.1 µM, first compound 1 µM
[11] = second compound 0.1 µM, first compound 3.16 µM
[12] = second compound 0.1 µM, first compound 10 µM
[13] = second compound 0.316 µM, first compound 0.0316 µM
[14] = second compound 0.316 µM, first compound 0.1 µM
[15] = second compound 0.316 µM, first compound 0.316 µM
[16] = second compound 0.316 µM, first compound 1 µM
[17] = second compound 0.316 µM, first compound 3.16 µM
[18] = second compound 0.316 µM, first compound 10 µM
[19] = second compound 1 µM, first compound 0.0316 µM
[20] = second compound 1 µM, first compound 0.1 µM
[21] = second compound 1 µM, first compound 0.316 µM
[22] = second compound 1 µM, first compound 1 µM
[23] = second compound 1 µM, first compound 3.16 µM
[24] = second compound 1 µM, first compound 10 µM
[25] = second compound 3.16 µM, first compound 0.0316 µM
[26] = second compound 3.16 µM, first compound 0.1 µM
[27] = second compound 3.16 µM, first compound 0.316 µM
[28] = second compound 3.16 µM, first compound 1 µM
[29] = second compound 3.16 µM, first compound 3.16 µM
[30] = second compound 3.16 µM, first compound 10 µM
[31] = second compound 10 µM, first compound 0.0316 µM
[32] = second compound 10 µM, first compound 0.1 µM
[33] = second compound 10 µM, first compound 0.316 µM
[34] = second compound 10 µM, first compound 1 µM
[35] = second compound 10 µM, first compound 3.16 µM
[36] = second compound 10 µM, first compound 10 µM
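Further: spheroids exposed to compounds for 7 days before readout.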
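Wherever viability, T/C is given: 100% = DMSO vehicle control viability.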

COc1cccc2c1C(=O)c1c(O)c3c(c(O)c1C2=O)CC(O)(C(=O)CO)CC3OC1CC(N)C(O)C(C)O1 (stereo unspecified) + COC1C(OC(N)=O)C(O)C(Oc2ccc3c(O)c(NC(=O)c4ccc(O)c(CC=C(C)C)c4)c(=O)oc3c2C)OC1(C)C
IC50 (second compound 0.0316 µM): 1540 nM | IC50 (second compound 0.1 µM): 1210 nM | IC50 (second compound 0.316 µM): 1180 nM | IC50 (second compound 1 µM): 1130 nM | IC50 (second compound 3.16 µM): 1600 nM | IC50 (second compound 10 µM): 1030 nM | viability, T/C [1]: 116% | viability, T/C [2]: 101% | viability, T/C [3]: 93.3% | viability, T/C [4]: 55.7% | viability, T/C [5]: 38.1% | viability, T/C [6]: 31.1% | viability, T/C [7]: 104% | viability, T/C [8]: 115% | viability, T/C [9]: 92.5% | viability, T/C [10]: 51.9% | viability, T/C [11]: 45.1% | viability, T/C [12]: 34.9% | viability, T/C [13]: 107% | viability, T/C [14]: 116% | viability, T/C [15]: 76% | viability, T/C [16]: 55.4% | viability, T/C [17]: 43.1% | viability, T/C [18]: 33.1% | viability, T/C [19]: 101% | viability, T/C [20]: 120% | viability, T/C [21]: 93.1% | viability, T/C [22]: 51.5% | viability, T/C [23]: 39.6% | viability, T/C [24]: 27.4% | viability, T/C [25]: 109% | viability, T/C [26]: 109% | viability, T/C [27]: 92.2% | viability, T/C [28]: 56.6% | viability, T/C [29]: 41.9% | viability, T/C [30]: 31.8% | viability, T/C [31]: 88.1% | viability, T/C [32]: 106% | viability, T/C [33]: 102% | viability, T/C [34]: 50.1% | viability, T/C [35]: 56.2% | viability, T/C [36]: 33.9%

Nc1ccn(C2OC(CO)C(O)C2(F)F)c(=O)n1 (stereo unspecified) + COC1C(OC(N)=O)C(O)C(Oc2ccc3c(O)c(NC(=O)c4ccc(O)c(CC=C(C)C)c4)c(=O)oc3c2C)OC1(C)C
IC50 (second compound 0.0316 µM): 553 nM | IC50 (second compound 0.1 µM): 898 nM | IC50 (second compound 0.316 µM): 1920 nM | IC50 (second compound 1 µM): 860 nM | IC50 (second compound 3.16 µM): 736 nM | IC50 (second compound 10 µM): 1110 nM | viability, T/C [1]: 77.8% | viability, T/C [2]: 56% | viability, T/C [3]: 56.4% | viability, T/C [4]: 46.9% | viability, T/C [5]: 47.6% | viability, T/C [6]: 36.6% | viability, T/C [7]: 67.6% | viability, T/C [8]: 60.5% | viability, T/C [9]: 57.5% | viability, T/C [10]: 46.7% | viability, T/C [11]: 45.5% | viability, T/C [12]: 42% | viability, T/C [13]: 65.1% | viability, T/C [14]: 70.8% | viability, T/C [15]: 62% | viability, T/C [16]: 54.1% | viability, T/C [17]: 46.9% | viability, T/C [18]: 33% | viability, T/C [19]: 72.8% | viability, T/C [20]: 69.9% | viability, T/C [21]: 53.7% | viability, T/C [22]: 48.5% | viability, T/C [23]: 43.4% | viability, T/C [24]: 35.5% | viability, T/C [25]: 72.1% | viability, T/C [26]: 63.5% | viability, T/C [27]: 58% | viability, T/C [28]: 48% | viability, T/C [29]: 39.1% | viability, T/C [30]: 37.9% | viability, T/C [31]: 69.4% | viability, T/C [32]: 75.7% | viability, T/C [33]: 59.7% | viability, T/C [34]: 53.3% | viability, T/C [35]: 38.2% | viability, T/C [36]: 34.2%

O=c1[nH]cc(F)c(=O)[nH]1 + COC1C(OC(N)=O)C(O)C(Oc2ccc3c(O)c(NC(=O)c4ccc(O)c(CC=C(C)C)c4)c(=O)oc3c2C)OC1(C)C
IC50 (second compound 0.0316 µM): > 10000 nM | IC50 (second compound 0.1 µM): > 10000 nM | IC50 (second compound 0.316 µM): > 10000 nM | IC50 (second compound 1 µM): > 10000 nM | IC50 (second compound 3.16 µM): > 10000 nM | IC50 (second compound 10 µM): > 10000 nM | viability, T/C [1]: 94% | viability, T/C [2]: 101% | viability, T/C [3]: 91% | viability, T/C [4]: 94% | viability, T/C [5]: 87% | viability, T/C [6]: 79.3% | viability, T/C [7]: 103% | viability, T/C [8]: 104% | viability, T/C [9]: 108% | viability, T/C [10]: 82.1% | viability, T/C [11]: 95.1% | viability, T/C [12]: 62.5% | viability, T/C [13]: 87.4% | viability, T/C [14]: 118% | viability, T/C [15]: 76.6% | viability, T/C [16]: 92.6% | viability, T/C [17]: 88.1% | viability, T/C [18]: 84.4% | viability, T/C [19]: 99% | viability, T/C [20]: 97.8% | viability, T/C [21]: 101% | viability, T/C [22]: 82.6% | viability, T/C [23]: 77.3% | viability, T/C [24]: 69.4% | viability, T/C [25]: 65% | viability, T/C [26]: 86.3% | viability, T/C [27]: 97.9% | viability, T/C [28]: 92.3% | viability, T/C [29]: 82.3% | viability, T/C [30]: 74.9% | viability, T/C [31]: 90.6% | viability, T/C [32]: 107% | viability, T/C [33]: 87.3% | viability, T/C [34]: 83.7% | viability, T/C [35]: 90.3% | viability, T/C [36]: 78.3%

From PubChem BioAssay AID1963828 (Molecular Pharmacology Branch, DTP, NCI, 2024)
